According to US20160324881A1, “Neurokinin-1 Receptor Antagonists For Use In A Method Of Prevention Of Cancer” (priority 2013, published 2016):
Where two headings read alike, the source gives them in different places.

Experiments:
NK1 receptors = NK1 receptors (Homo sapiens, UniProt P25103); conditions: versus other receptors such as serotonin, dopamine, corticosteroid; estimated; cited from earlier work
[1] = system: MDA-MB-231 cells (triple negative tumor cells); test: Example 5: preventive treatment of xenografted nude mice (FIG. 4); type: in vivo; conditions: MDA-MB-231 xenograft; fosaprepitant i.v. 60 mg/kg/d, aprepitant p.o. 100 mg/kg/d, once daily for 19 days from day -2
Protocol: (§1) After an acclimatization period, application of fosaprepitant, aprepitant and vehicle control was started (day −2): Fosaprepitant was administered intravenously (i.v.; 60 mg/kg/d) once daily for 19 days, and aprepitant was administered per oral gavage (p.o.; 100 mg/kg/d) once daily for 19 days. […] The tumor volume was measured and depicted as mm3 at the indicated time points.
as §1, with “FIG. 4: In vivo treatment of xenografted mice with fosaprepitant and aprepitant. After” for “After”

brain tumors = conditions: background report; cited from earlier work
A549 cells [2] = test: Soft agar growth assay (Alamar Blue), A549; type: cell-based; conditions: Homo sapiens
Protocol: (§2) Aprepitant (Biorbit) and fosaprepitant (IVEMEND®, MSD) were dissolved at a concentration of 100 mM in 100% DMSO (aprepitant) or in 0.9% NaCl (fosaprepitant). Actinomycin D was used as reference compound.
(§3) Stock solutions were diluted covering the final concentration range between 0 and 200 μM. The appropriate solvent controls were performed in parallel.
(§4) Compounds dissolved in DMSO (aprepitant as well as Actinomycin D) were diluted in 8 semilog steps in DMSO to obtain a dilution series with the 1000 fold final concentration.
(§5) Fosaprepitant was diluted in 8 semilog steps in 0.9% NaCl to obtain a dilution series with the 1000 fold final concentration.
(§6) Cancer cells stemming from established cancer cell lines (A549, HCT116, MDA-MB231) were cultured in DMEM containing 10% FCS and Penicillin/Streptomycin.
(§7) For each cell line 96 well suspension cell culture plates were prepared. 100 μL of the soft agar bottom layer (0.6% final concentration in complete medium) was poured and left to solidify. […]
(§8) Next day, compounds were added into the inner wells of the plate. […] Finally, the assays were developed using Alamar Blue and upon 3-5 h of incubation at 37° C. fluorescence intensity was determined (excitation: 560 nm; emission: 590 nm). […]

MDA-MB-231 cells = test: Xenograft tumor model, preventive application, MDA-MB-231; conditions: aprepitant 100 mg/kg p.o., fosaprepitant 60 mg/kg i.v., 1x daily from day -2
Protocol: (§9) The ability of fosaprepitant and aprepitant to prevent tumor formation in xenograft models for breast cancer, lung cancer and colon cancer was investigated.
(§10) Monolayer MDA-MB-231 cells, HCT-116 cells and A549 cells, respectively, were grown in DMEM+10% FCS. The cells were cultured in a humidified atmosphere of 90% air and 10% carbon dioxide at 37° C. Media was routinely changed every 3 days. Confluent cultures were split 1:3 to 1:3 every 3-4 days using Trypsin/EDTA and seeded at a density of approximately 3-4×10^6 cells/15 cm^2+25 mL medium.
(§11) Female BALB/c nude (CAnN.Cg-Foxn1^nu/Crl) Mice (Charles River GmbH, Sulzfeld, Germany) aged 4-5 weeks at delivery and weighing approximately 15-18 g were kept under optimum hygienic conditions, air-conditioned with 10-15 air changes per hour, and continually monitored environment with target ranges for temperature 22±3° C. and for relative humidity 30-70%, 12 hours artificial fluorescent light/12 hours dark. Maximum 4 animals were kept per individual ventilated cage (IVC) and fed with a diet consisting of M-Zucht (ssniff Spezialdiáten GmbH) and autoclaved community tab water.
(§12) After an acclimatization period of 4 days (day −2) application of fosaprepitant, aprepitant and vehicle was started: Fosaprepitant was administered intravenously (i.v.) once daily for 20 days, and aprepitant was administered per oral gavage (p.o.) once daily for 20 days. Fosaprepitant was dissolved in 0.9% NaCl and 0.9% NaCl was used analogous to fosaprepitant as control (vehicle 1). As aprepitant is not water-soluble, it was provided as a suspension of ground EMEND® tablets in OraPlus® (Paddock Laboratories, Minneapolis, USA; contains: purified water, microcrystalline cellulose, carboxymethylcellulose sodium, xanthan gum, flavouring, citric acid, sodium phosphate, simethicone, methylparaben, and potassium sorbate, pH 4.2) and OraPlus® was used analogous to aprepitant as control (vehicle 2).
(§13) In the following, animal weights were measured (balance: Mettler Toledo PB602-L). Primary tumor sizes were measured by callipering (manual calliper, OMC Fontana). Tumor sizes were calculated according to the formula W^2×L/2 (L=length and W=the perpendicular width of the tumor, L>W).
(§14) Animal behavior and welfare was observed daily and tumor growth was recorded every two days by calliper measurement over a period of 30 days.

A549 cells [3] = test: Xenograft tumor model, preventive application, A549; conditions: aprepitant 100 mg/kg p.o., fosaprepitant 60 mg/kg i.v., 1x daily from day -2
Protocol: as §9, §10, §11, §12, §13, §14

[4] = capsules; cited from earlier work
MDA-MB231 cells = test: Soft agar growth assay (Alamar Blue), MDA-MB231; type: cell-based; conditions: Homo sapiens, MDA-MB-231, 264 h
Protocol: as §2, §3, §4, §5, §6, §7, §8

[5] = cited from earlier work
HCT116 cells = test: Soft agar growth assay (Alamar Blue), HCT116; type: cell-based; conditions: Homo sapiens, HCT-116, 192 h
Protocol: as §2, §3, §4, §5, §6, §7, §8

HCT-116 cells = test: Xenograft tumor model, preventive application, HCT116; conditions: aprepitant 100 mg/kg p.o., fosaprepitant 60 mg/kg i.v., 1x daily from day -2
Protocol: as §9, §10, §11, §12, §13, §14

[6] = MDA-MB-231, 10 days after tumor cell inoculation
[7] = MDA-MB-231, 20 days after tumor cell inoculation
[8] = MDA-MB-231, 30 days after tumor cell inoculation
[9] = A549, 10 days after tumor cell inoculation
[10] = A549, 20 days after tumor cell inoculation
[11] = A549, 30 days after tumor cell inoculation
[12] = HCT116, 10 days after tumor cell inoculation
[13] = HCT116, 20 days after tumor cell inoculation
[14] = HCT116, 30 days after tumor cell inoculation

NK1 receptors, sequence (P25103 whole entry): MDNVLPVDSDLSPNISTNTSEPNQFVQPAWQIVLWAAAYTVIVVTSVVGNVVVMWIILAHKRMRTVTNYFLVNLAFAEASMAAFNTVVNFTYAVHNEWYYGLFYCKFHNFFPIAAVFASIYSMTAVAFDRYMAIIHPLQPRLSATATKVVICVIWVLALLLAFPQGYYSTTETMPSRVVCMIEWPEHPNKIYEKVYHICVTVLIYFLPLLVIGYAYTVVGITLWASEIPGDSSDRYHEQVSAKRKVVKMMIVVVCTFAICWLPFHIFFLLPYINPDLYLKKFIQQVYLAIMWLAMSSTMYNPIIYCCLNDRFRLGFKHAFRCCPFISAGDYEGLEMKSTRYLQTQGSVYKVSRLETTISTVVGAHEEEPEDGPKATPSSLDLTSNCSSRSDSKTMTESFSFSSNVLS

Row | SMILES | selectivity of NK1 receptors compared to other enzyme transporter, ion channels (NK1 receptors) | Tumor growth on preventive application [1] | brain tumor growth (brain tumors) | IC50 (A549 cells [2]; 192 h, A549 (lung), soft agar growth, incubation time 8 days, read-out: IC50) | Tumor volume (mean) (MDA-MB-231 cells; [6]) | Tumor volume (mean) (MDA-MB-231 cells; [7]) | Tumor volume (mean) (MDA-MB-231 cells; [8]) | Tumor volume (mean) (A549 cells [3]; [9]) | Tumor volume (mean) (A549 cells [3]; [10]) | Tumor volume (mean) (A549 cells [3]; [11]) | average oral bioavailability [4] | IC50 (MDA-MB231 cells; MDA-MB231 (breast), soft agar growth, incubation time 11 days, read-out: IC50) | water solubility [5] | IC50 (HCT116 cells; HCT116 (colon), soft agar growth, incubation time 8 days, read-out: IC50) | Tumor volume (mean) (HCT-116 cells; [12]) | Tumor volume (mean) (HCT-116 cells; [13]) | Tumor volume (mean) (HCT-116 cells; [14]) | IC50 (A549 cells [2]; A549, 192 h) | IC50 (MDA-MB231 cells) | IC50 (HCT116 cells)
1 | C[C@@H](O[C@H]1OCCN(Cc2nc(=O)[nH][nH]2)[C@H]1c1ccc(F)cc1)c1cc(C(F)(F)F)cc(C(F)(F)F)c1 [Aprepitant] | at least 3000 times | reduced growth of triple negative tumor cells | reduce brain tumor growth | 3.6 µM | <20 mm^3 | <20 mm^3 | <20 mm^3 | <20 mm^3 | <20 mm^3 | <20 mm^3 | 60-65% | 17 µM | virtually water-insoluble | 3.4 µM | <20 mm^3 | <20 mm^3 | <20 mm^3 |  |  | 
2 | C[C@@H](O[C@H]1OCCN(Cc2nc(O)n(P(=O)(O)O)n2)[C@H]1c1ccc(F)cc1)c1cc(C(F)(F)F)cc(C(F)(F)F)c1 [Fosaprepitant] |  | reduced growth of triple negative tumor cells |  |  | <20 mm^3 | <20 mm^3 | <20 mm^3 | <20 mm^3 | <20 mm^3 | <20 mm^3 |  |  | water-soluble |  | <20 mm^3 | <20 mm^3 | <20 mm^3 | 1.7 µM | 36 µM | 3 µM
